In patent publication US11033624B2, “Medical item for prevention and treatment of ear infection” (Novaflux Inc., priority 2010, dated 2021):

Assay: Thermogravimetric analysis weight loss
Format: physicochemical
Settings: 250° C., pure state, heating rate 10° C./min
Method: An anti-biotic agent was selected consisting of ciprofloxacin betaine crystalline powder (C.A.S. Registry No. 85721-33-1). Ciprofloxacin is a broad spectrum antimicrobial agent having less than 1 percent weight loss at a temperature of 250° C. when measured in a pure state by thermogravimetric analysis at a heating rate of 10° C./min. The ciprofloxacin melted over a temperature range of 252° C. to 271° C.

- weight loss by thermogravimetric analysis: less than 1%
SMILES: O=C(O)c1cn(C2CC2)c2cc(N3CCNCC3)c(F)cc2c1=O [Ciprofloxacin, ciprofloxacin betaine]
